Laboratory results reported in ChEMBL document CHEMBL1201862, “PubChem BioAssay data set” (2004).
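Dose response: 5 concentrations. Exposure: 48 h. Format: 96-well plates. Endpoint: linear interpolation; highest concentration if not reached. Abbreviation: GI50, concentration required for 50% inhibition of growth.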 The source made the active and inactive calls. Rule as the data show it: active = GI50 up to about 1.1 µM and inactive = higher.

Experiments:
Experiment in all cases: NCI anticancer screen, dose series, 48 h
RXF 393 = system: RXF 393
HOP-92 = system: HOP-92
UO-31 = system: UO-31
HOP-62 = system: HOP-62
HT-29 = system: HT-29
A549 = system: A549
NCI-H226 = system: NCI-H226
K562 = system: K562
PC-3 = system: PC-3
T47D = system: T47D
SW-620 = system: SW-620
HCT-116 = system: HCT-116
SK-MEL-28 = system: SK-MEL-28
SF-268 = system: SF-268
SN12C = system: SN12C
LOX IMVI = system: LOX IMVI
NCI-H522 = system: NCI-H522

| SMILES | GI50 (RXF 393) | GI50 (HOP-92) | GI50 (UO-31) | GI50 (HOP-62) | GI50 (HT-29) | GI50 (A549) | GI50 (NCI-H226) | GI50 (K562) | GI50 (PC-3) | GI50 (T47D) | GI50 (SW-620) | GI50 (HCT-116) | GI50 (SK-MEL-28) | GI50 (SF-268) | GI50 (SN12C) | GI50 (LOX IMVI) | GI50 (NCI-H522) |
| --- | --- | --- | --- | --- | --- | --- | --- | --- | --- | --- | --- | --- | --- | --- | --- | --- | --- |
| Cc1ccc(/S(Cc2ccccc2)=N\S(=O)(=O)c2ccc(C)cc2)cc1 (centres undefined) | > 100 µM (inactive) | > 100 µM (inactive) | > 100 µM (inactive) | > 100 µM (inactive) | > 100 µM (inactive) | > 100 µM (inactive) | > 100 µM (inactive) | > 100 µM (inactive) | > 100 µM (inactive) | > 100 µM (inactive) | > 100 µM (inactive) | > 100 µM (inactive) | > 100 µM (inactive) | > 100 µM (inactive) | > 100 µM (inactive) |  |  |
| CCc1nc(N)nc(N)c1-c1ccc([N+](=O)[O-])c(Cl)c1 | 16.1 µM (inactive) | 18.2 µM (inactive) | 9.04 µM (inactive) | 7.53 µM (inactive) | 1.78 µM (inactive) | 0.416 µM (active) | 30.4 µM (inactive) | 0.227 µM (active) | 1.87 µM (inactive) | 39.5 µM (inactive) | 1.49 µM (inactive) | 0.457 µM (active) | 36.5 µM (inactive) | 4.29 µM (inactive) | 13.3 µM (inactive) | 1.44 µM (inactive) | 6.1 µM (inactive) |
| NNC(=O)c1cc([N+](=O)[O-])ccc1NC(=O)C12CC3CC(CC(C3)C1)C2 | 7.98 µM (inactive) | 12.9 µM (inactive) | 7.98 µM (inactive) | 16.3 µM (inactive) | 25.8 µM (inactive) | 17.8 µM (inactive) | 4.62 µM (inactive) | 7.48 µM (inactive) | 13 µM (inactive) | 10 µM (inactive) | 7.74 µM (inactive) | 7.74 µM (inactive) |  | 3.82 µM (inactive) | 8.63 µM (inactive) | 2.93 µM (inactive) | 3 µM (inactive) |
| Cc1c(OCc2cccc3ccccc23)ccc2c(=O)cc(SCCN3CCOCC3)oc12 | > 100 µM (inactive) | > 100 µM (inactive) | > 100 µM (inactive) | > 100 µM (inactive) | > 100 µM (inactive) | > 100 µM (inactive) | > 100 µM (inactive) | > 100 µM (inactive) | > 100 µM (inactive) | > 100 µM (inactive) | > 100 µM (inactive) | > 100 µM (inactive) | > 100 µM (inactive) | > 100 µM (inactive) | > 100 µM (inactive) | > 100 µM (inactive) | 90.6 µM (inactive) |
| CC(C)=CC1C(COC(=O)c2cc3c(cc2Cl)OCO3)C1(C)C (centres undefined) | 20.8 µM (inactive) | 23.8 µM (inactive) | 54.2 µM (inactive) | 38.3 µM (inactive) | 33 µM (inactive) | 34.2 µM (inactive) | 42.4 µM (inactive) | 34.4 µM (inactive) | 35.5 µM (inactive) | 39.1 µM (inactive) | 33.1 µM (inactive) | 33.4 µM (inactive) | 38.8 µM (inactive) | 19.3 µM (inactive) | 39.5 µM (inactive) | 22.3 µM (inactive) | 18 µM (inactive) |
| O=C(C/C(=N/O)C(F)(F)F)c1cccs1 | > 100 µM (inactive) | > 100 µM (inactive) | > 100 µM (inactive) | > 100 µM (inactive) | > 100 µM (inactive) | > 100 µM (inactive) | > 100 µM (inactive) | > 100 µM (inactive) | > 100 µM (inactive) | > 100 µM (inactive) | > 100 µM (inactive) | > 100 µM (inactive) | > 100 µM (inactive) | > 100 µM (inactive) | > 100 µM (inactive) | > 100 µM (inactive) |  |
| S=C(NN=C1NCCCCN1)Nc1ccc(Cl)cc1 | > 100 µM (inactive) | 29.8 µM (inactive) | 9.44 µM (inactive) | 11 µM (inactive) | 16.2 µM (inactive) | 11.8 µM (inactive) | > 100 µM (inactive) | 5.85 µM (inactive) | 13.9 µM (inactive) | 39.8 µM (inactive) | 25.4 µM (inactive) | 7.52 µM (inactive) | 31 µM (inactive) | 14.4 µM (inactive) |  | 11.7 µM (inactive) | 12.9 µM (inactive) |
| O=C(O)C1C(=O)Oc2c(cccc2[N+](=O)[O-])C1O (centres undefined) | > 100 µM (inactive) | > 100 µM (inactive) |  | > 100 µM (inactive) | > 100 µM (inactive) | > 100 µM (inactive) | > 100 µM (inactive) | > 100 µM (inactive) | > 100 µM (inactive) | > 100 µM (inactive) | > 100 µM (inactive) | > 100 µM (inactive) | > 100 µM (inactive) | > 100 µM (inactive) | > 100 µM (inactive) | > 100 µM (inactive) | > 100 µM (inactive) |
| N#CC1CNC(N)NC1N (centres undefined) | > 100 µM (inactive) | > 100 µM (inactive) |  | > 100 µM (inactive) | > 100 µM (inactive) | > 100 µM (inactive) | > 100 µM (inactive) | 64.1 µM (inactive) | > 100 µM (inactive) | > 100 µM (inactive) | > 100 µM (inactive) | > 100 µM (inactive) | > 100 µM (inactive) | > 100 µM (inactive) | > 100 µM (inactive) | > 100 µM (inactive) | > 100 µM (inactive) |
| CCNc1ncnc2nn[nH]c12 | > 100 µM (inactive) | > 100 µM (inactive) | > 100 µM (inactive) | > 100 µM (inactive) | > 100 µM (inactive) | > 100 µM (inactive) | > 100 µM (inactive) | > 100 µM (inactive) | > 100 µM (inactive) | > 100 µM (inactive) | > 100 µM (inactive) | > 100 µM (inactive) | > 100 µM (inactive) |  | > 100 µM (inactive) | > 100 µM (inactive) | > 100 µM (inactive) |
| c1ccc(-c2nc3ccccc3n3c(CN4CCCCC4)nnc23)cc1 | 35.7 µM (inactive) | 31.2 µM (inactive) |  | 28.5 µM (inactive) | > 100 µM (inactive) | > 100 µM (inactive) | > 100 µM (inactive) | > 100 µM (inactive) | > 100 µM (inactive) | 54.5 µM (inactive) | > 100 µM (inactive) | > 100 µM (inactive) | > 100 µM (inactive) | 49.5 µM (inactive) | > 100 µM (inactive) | > 100 µM (inactive) | > 100 µM (inactive) |
| O=C1NC(N2CCOCC2)=N/C1=C\c1ccc(O)cc1 | > 100 µM (inactive) | > 100 µM (inactive) | > 100 µM (inactive) | > 100 µM (inactive) | > 100 µM (inactive) | > 100 µM (inactive) | > 100 µM (inactive) |  | > 100 µM (inactive) | > 100 µM (inactive) | > 100 µM (inactive) | > 100 µM (inactive) | > 100 µM (inactive) | > 100 µM (inactive) | > 100 µM (inactive) | > 100 µM (inactive) | 16.4 µM (inactive) |
